Article PMC9866218, “Characterization and Chemical Synthesis of Cm39 (α-KTx 4.8): A Scorpion Toxin That Inhibits Voltage-Gated K^+ Channel KV1.2 and Small- and Intermediate-Conductance Ca^2+-Activated K^+ Channels KCa2.2 and KCa3.1” (Toxins, 2023)
“Also recorded” adds a separate entry of the source.

Key:
[1] = target: T1, hKV1.2 (Homo sapiens, UniProt P16389); experiment: Whole-cell patch-clamp, block of KV1.2 current; type: cell-based
T1 construct: GFP (vector pCMV6-AC-GFP); host or cells: CHO cells, transient transfection
Description: (§1) We, therefore, aimed at testing the pharmacological activity of sCm39 on a battery of various potassium and sodium ion channels. Among the tested channels were six members of human voltage-gated K^+ (hKV) channels from Shaker family, hKV1.1-hKV1.6 (Figure 3A–F) and three members of Ca^2+-activated potassium channel; hKCa2.2 (SK2, Figure 3I), the small-conductance Ca^2+-activated channel; hKCa3.1 (IKCa1, SK4. Figure 3J), the intermediate-conductance Ca^2+-activated channel expressed in T lymphocytes; and mKCa1.1 (BK, Slo1, MaxiK, Figure 3H), the large-conductance voltage- and Ca^2+-activated channel of mice. In addition, we also screened the effect of Cm39 on hKV11.1 (hERG1, Figure 3G), a voltage-gated cardiac K^+ channel, and two human voltage-gated sodium (hNaV) channels, hNaV1.4 (Figure 3K) and hNaV1.5 (Figure 3L), expressed in skeletal and cardiac muscles, respectively. These ion channels were heterologously expressed in the CHO or HEK cell lines except for KV1.3. Human peripheral T lymphocytes. They were stimulated with Phytohemagglutinin A (PHA) to increase the KV1.3 channel expression, and Ca^2+-free intracellular solution was used to avoid KCa3.1 channel activation. Appropriate depolarization protocols were used to record ionic currents in voltage-clamped cells (see Figure 3 insets and Material and Methods for details). Freshly dissolved sCm39 in extracellular solution was applied at 1 µM concentration on the cell using a custom-built micro-perfusion system at ~200 µL/min flow rate.
For comprehensive characterization of Cm39 activity on KV1.2, we determined the concentration–response of current inhibition by Cm39, the kinetic parameters of its binding and assessed the effect on voltage dependence of steady-state activation. The whole-cell KV1.2 currents were recorded in CHO cells using depolarization pulses to +50mV from −120mV holding potential (Vh) every 15 s. Since the activation kinetics of KV1.2 are highly variable, the duration of pulses was set on a cell-by-cell basis between 15–300 ms to allocate sufficient time for reaching maximum currents at the test potentials. […] The remaining current fractions (RCF = I/I0, where I0 is the peak current in the absence of the toxin, and I is the peak current at equilibrium block in the presence of sCm39 at a given concentration) were calculated and plotted as a function of toxin concentration.
Single-exponential decay functions were fitted to the normalized peak currents in the presence of each sCm39 concentration (Figure 4C, data points in red shades) to determine the time constant for the onset of block (τon, wash-in or association time constant). The dissociation time constant for the relief from block (τoff, wash-out time constant) was obtained by fitting a single-exponential rising function to the normalized peak currents in the wash-out procedure (Figure 4C, data point in black empty circles). Assuming a simple bimolecular interaction between the toxin and the channel, time constants for the onset and recovery from the block can be stated as follows:(1) τon=1/kon×[toxin]+koff , τoff=1/koff where kon represents the second-order association rate constant, koff indicates the first-order dissociation rate constant and [toxin] is the sCm39 concentration. […] The second-order rate constant of association (kon) was determined by fitting the 1/τon data points using linear regression with koff as the y-intercept.

[2] = system: hKV1.1; type: cell-based, human; settings: CHO cells
Description: as §1
(§2) Chinese hamster ovary (CHO) cells (gift from Yosef Yarden, Weizmann Institute of Science, Rehovot, Israel) were maintained by culturing in Dulbecco’s modified Eagle medium (DMEM, Gibco) supplemented with 2 mM L-glutamine, 10% FBS, 100 µg/mL streptomycin and 100 U/mL penicillin-g (Sigma-Aldrich) at a density of 0. 5−1×10^6 cells per mL in a humidified incubator at 37 °C and 5% CO2. Cells were passaged 3 times in a week following a 2–5 min incubation in 0.05% trypsin-EDTA solution at 37 °C. Cultures were used up to passage number 20. PCR-based tests were routinely used to detect mycoplasma infection, only mycoplasma-free cultures were used for experiments.
(§3) Those plasmids which lack a fluorescent tag were co-transfected with a plasmid encoding GFP. Transfections were performed at a GFP:channel DNA molar ratio of 1:10 using the Lipofectamine 2000 kit (Invitrogen) according to the manufacturer’s protocol. […] Generally, currents were recorded 24 to 48 h post transfection.
(§4) For the measurement of KV1.x, mKCa1.1 and NaV1.x currents the extracellular solution was composed of (in mM) 145 NaCl, 5 KCl, 2.5 CaCl2, 1 MgCl2, 10 HEPES and 5.5 glucose, pH 7.35. In the HK-150 and Na^+-free bath solution bath all Na^+ was substituted by K^+ or Choline-Cl, respectively, other ingredients remained unchanged. In the various TEA^+-containing solutions, Na^+ was substituted by tetraethylammonium-Cl in equimolar concentration (Figure 3). The bath solution for KCa2.2 and KCa3.1 consisted of (in mM) 145 L-Aspartic Na^+ salt, 5 KCl, 2.5 CaCl2, 1 MgCl2, 5.5 glucose and 10 HEPES, pH 7.4 and for KV11.1 (in mM) 140 Choline-Cl, 5 KCl, 2 MgCl2, 2 CaCl2, 10 HEPES, 20 glucose and 0.1 CdCl2, pH 7.35. The osmolarity of bath solutions was ranging between 302 to 308 mOsm/L. A total of 0.1 mg/mL bovine serum albumin (BSA, Sigma-Aldrich, Budapest, Hungary) was added to all the bath solutions before the patch-clamp assay to avoid toxin adsorption to the plastic surfaces of the perfusion system. Internal or pipette solution for recording KV1.x and mKCa1.1 currents consisted of (in mM) 140 KF, 2 MgCl2, 1 CaCl2, 11 EGTA and 10 HEPES, pH 7.22.

[3] = system: hKV1.6; type: cell-based, human; settings: CHO cells
Description: as §1, §2, §3, §4

[4] = system: hKV1.4; experiment: Whole-cell patch-clamp, block of KV1.4 current; type: cell-based, human; settings: CHO cells
Description: as §1, with “Appropriate depolarization protocols were used to record ionic currents in voltage-clamped cells (see Figure 3 insets and Material and Methods for details). Freshly dissolved sCm39 in extracellular solution was applied at 1 µM concentration on the cell using a custom-built micro-perfusion system at ~200 µL/min flow rate.” left out
(§5) Those plasmids which lack a fluorescent tag were co-transfected with a plasmid encoding GFP. […] Generally, currents were recorded 24 to 48 h post transfection. […]

[5] = system: hKV1.5; experiment: Whole-cell patch-clamp, block of KV1.5 current; type: cell-based, human; settings: CHO cells
Description: as §1, with “Appropriate depolarization protocols were used to record ionic currents in voltage-clamped cells (see Figure 3 insets and Material and Methods for details). Freshly dissolved sCm39 in extracellular solution was applied at 1 µM concentration on the cell using a custom-built micro-perfusion system at ~200 µL/min flow rate.” left out
as §5

T1 sequence (P16389 whole entry): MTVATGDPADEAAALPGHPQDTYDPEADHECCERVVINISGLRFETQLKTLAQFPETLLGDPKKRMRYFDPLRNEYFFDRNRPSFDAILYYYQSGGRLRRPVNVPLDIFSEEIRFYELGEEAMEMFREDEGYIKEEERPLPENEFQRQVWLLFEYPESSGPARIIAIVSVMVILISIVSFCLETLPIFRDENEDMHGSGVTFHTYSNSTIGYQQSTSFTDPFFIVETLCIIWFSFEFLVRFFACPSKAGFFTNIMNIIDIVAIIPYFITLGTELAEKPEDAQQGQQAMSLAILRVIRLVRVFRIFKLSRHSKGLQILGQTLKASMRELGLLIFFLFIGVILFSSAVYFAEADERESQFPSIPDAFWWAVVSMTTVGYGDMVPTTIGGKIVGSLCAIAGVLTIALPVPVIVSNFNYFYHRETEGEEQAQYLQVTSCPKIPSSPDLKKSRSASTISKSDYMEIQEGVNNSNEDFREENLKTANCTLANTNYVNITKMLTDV

Q: For `CC[C@H](C)[C@@H]1NC(=O)[C@H](C)NC(=O)[C@H](C)NC(=O)[C@H](CCCCN)NC(=O)[C@@H]2CSSC[C@@H](C(=O)N[C@@H](Cc3ccc(O)cc3)C(=O)N[C@@H](Cc3ccc(O)cc3)C(=O)O)NC(=O)[C@H](CCCCN)NC(=O)[C@@H]3CSSC[C@H](NC(=O)[C@H](CCC(=O)O)NC(=O)[C@H](CO)NC(=O)[C@H](CO)NC(=O)[C@H](CO)NC(=O)[C@H](CCCCN)NC(=O)[C@@H](NC(=O)[C@H](CCCCN)NC(=O)[C@H](Cc4c[nH]cn4)NC(=O)[C@H](CC(N)=O)NC(=O)[C@@H](NC(=O)[C@H](Cc4ccccc4)NC(=O)[C@@H](N)[C@@H](C)O)[C@@H](C)CC)CSSC[C@H](NC(=O)[C@H](CCCCN)NC(=O)CNC(=O)[C@H](CO)NC(=O)[C@H](C)NC(=O)[C@H](CCCNC(=N)N)NC(=O)CNC1=O)C(=O)N[C@@H]([C@@H](C)CC)C(=O)N[C@@H](CC(N)=O)C(=O)N[C@@H](CO)C(=O)N[C@@H]([C@@H](C)O)C(=O)N3)C(=O)N[C@@H](CC(C)C)C(=O)N1CCC[C@H]1C(=O)N[C@@H](C)C(=O)N2` [Cm39], which inhibition at 0.005 µM ([1]; 5 nM, CHO cells, pulses to +50 mV, read-out: inhibition of KV1.2 current at equilibrium block) is on record?
A: ~5%

Q: And the inhibition at 0.02 µM ([1]; 20 nM, CHO cells, pulses to +50 mV, read-out: inhibition of KV1.2 current at equilibrium block)?
A: ~22%

Q: What about the inhibition at 0.05 µM ([1]; 50 nM, CHO cells, pulses to +50 mV, read-out: inhibition of KV1.2 current at equilibrium block) of the same compound?
A: ~43%

Q: What about the inhibition at 0.1 µM ([1]; 100 nM, CHO cells, pulses to +50 mV, read-out: inhibition of KV1.2 current at equilibrium block) of the same compound?
A: ~62%

Q: And the inhibition at 0.25 µM ([1]; 250 nM, CHO cells, pulses to +50 mV, read-out: inhibition of KV1.2 current at equilibrium block)?
A: ~78%

Q: What about the inhibition at 0.5 µM ([1]; 500 nM, CHO cells, pulses to +50 mV, read-out: inhibition of KV1.2 current at equilibrium block) of the same compound?
A: ~87%

Q: What about the “reduction of current at equilibrium block” value ([1]; 1 µM, CHO cells, n = 3−5 (Figure 3M)) of the same compound?
A: 95%

Q: What about the “toxin association and dissociation kinetics” value ([1]; 5−500 nM) of the same compound?
A: fast

Q: And the “toxin association and dissociation kinetics” value ([1]; 5−500 nM, listed as sCm39)?
A: very fast

Q: And the “selectivity for KV1.2 over KV1.3” value ([1]; KV1.2 over KV1.3)?
A: > 15 fold

Q: And the Hill coefficient ([1]; concentration-response of KV1.2 block, CHO cells)?
A: 0.96

Q: What about the kon ([1]; slope of linear regression of 1/τon vs concentration, r^2 = 0.97, CHO cells, read-out: second-order association rate constant kon) of the same compound?
A: 215000 M⁻¹ s⁻¹

Q: And the “reversibility of KV1.2 block” value ([1]; wash-out with toxin-free solution, 5−500 nM)?
A: fully reversible

Q: And the koff ([1]; wash-out, single-exponential fit, CHO cells, simple bimolecular interaction assumed, read-out: dissociation rate constant koff (1/τoff))?
A: 0.019 ± 0.0013 s⁻¹

Q: And the “inhibition (in words)” value ([2]; 1 μM)?
A: does not inhibit; also recorded: did not show any effect

Q: And the decrease in current ([2]; 1 µM, 3−5 min, n = 3−5)?
A: < 3%

Q: And the “inhibition (in words)” value ([3]; 1 μM)?
A: does not inhibit; also recorded: did not show any effect

Q: What about the decrease in current ([3]; 1 µM, 3−5 min, n = 3−5) of the same compound?
A: < 3%

Q: And the “inhibition (in words)” value ([4]; 1 μM)?
A: does not inhibit; also recorded: did not show any effect

Q: What about the decrease in current ([4]; 1 µM, 3−5 min, n = 3−5) of the same compound?
A: < 3%

Q: And the “inhibition (in words)” value ([5]; 1 μM)?
A: does not inhibit; also recorded: did not show any effect

Q: What about the decrease in current ([5]; 1 µM, 3−5 min, n = 3−5) of the same compound?
A: < 3%
